Measurements published in PubChem BioAssay (NCI).
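48-hour exposure; five concentrations; linearly interpolated endpoints. GI50 is the concentration that inhibits growth by half. The concentration for full growth arrest is given as TGI.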

Assays:
Experiment in all cases: growth of human tumour cells (NCI), 48 h
SR leukemia = system: SR leukemia
CCRF-CEM leukemia = system: CCRF-CEM leukemia
T-47D breast = system: T-47D breast
MOLT-4 leukemia = system: MOLT-4 leukemia
KM12 colon = system: KM12 colon
A549 NSCLC = system: A549 NSCLC
IGROV1 ovarian = system: IGROV1 ovarian
SK-OV-3 ovarian = system: SK-OV-3 ovarian
NCI-H460 lung = system: NCI-H460 lung
HCC-2998 colon = system: HCC-2998 colon
UACC-257 melanoma = system: UACC-257 melanoma
OVCAR-4 ovarian = system: OVCAR-4 ovarian
SF-268 CNS = system: SF-268 CNS
HOP-92 NSCLC = system: HOP-92 NSCLC
UACC-62 melanoma = system: UACC-62 melanoma
HCT-116 colon = system: HCT-116 colon
SNB-19 CNS = system: SNB-19 CNS
NCI-H23 lung = system: NCI-H23 lung
SF-539 CNS = system: SF-539 CNS
MALME-3M melanoma = system: MALME-3M melanoma
SF-295 CNS = system: SF-295 CNS
NCI-H522 lung = system: NCI-H522 lung
U251 CNS = system: U251 CNS
NCI-H226 lung = system: NCI-H226 lung
SNB-75 CNS = system: SNB-75 CNS
BT-549 breast = system: BT-549 breast
DU-145 prostate = system: DU-145 prostate
SK-MEL-28 melanoma = system: SK-MEL-28 melanoma
M14 melanoma = system: M14 melanoma
HS 578T breast = system: HS 578T breast
HOP-62 NSCLC = system: HOP-62 NSCLC
786-0 renal = system: 786-0 renal
UO-31 renal = system: UO-31 renal
OVCAR-5 ovarian = system: OVCAR-5 ovarian
MDA-MB-435 = system: MDA-MB-435
A498 renal = system: A498 renal
COLO 205 colon = system: COLO 205 colon
EKVX NSCLC = system: EKVX NSCLC
NCI/ADR-RES ovarian = system: NCI/ADR-RES ovarian
SK-MEL-5 melanoma = system: SK-MEL-5 melanoma
RXF 393 renal = system: RXF 393 renal
OVCAR-8 ovarian = system: OVCAR-8 ovarian
SK-MEL-2 melanoma = system: SK-MEL-2 melanoma
TK-10 renal = system: TK-10 renal
HT29 colon = system: HT29 colon
ACHN renal = system: ACHN renal
HCT-15 colon = system: HCT-15 colon
RPMI-8226 leukemia = system: RPMI-8226 leukemia
K-562 leukemia = system: K-562 leukemia
SW-620 colon = system: SW-620 colon
CAKI-1 renal = system: CAKI-1 renal
PC-3 prostate = system: PC-3 prostate
HL-60(TB) leukemia = system: HL-60(TB) leukemia
MDA-MB-231 breast = system: MDA-MB-231 breast
SN12C renal = system: SN12C renal
MCF7 breast = system: MCF7 breast

## O=C1CC2(CCOCC2)Oc2ncccc21
SR leukemia
  GI50: 0.974 µM
  TGI: 4.69 µM
CCRF-CEM leukemia
  GI50: 2.11 µM
  TGI: 4.74 µM
T-47D breast
  GI50: 4.66 µM
  TGI: 26.9 µM
MOLT-4 leukemia
  GI50: 2.11 µM
  TGI: 4.8 µM
KM12 colon
  GI50: 2.76 µM
  TGI: 7.65 µM
A549 NSCLC
  GI50: 4.94 µM
  TGI: 19.1 µM
IGROV1 ovarian
  GI50: 1.88 µM
  TGI: 3.86 µM
SK-OV-3 ovarian
  GI50: 15.7 µM
  TGI: 29.3 µM
NCI-H460 lung
  GI50: 2.3 µM
  TGI: 5.61 µM
HCC-2998 colon
  GI50: 1.78 µM
  TGI: 3.4 µM
UACC-257 melanoma
  GI50: 2.53 µM
  TGI: 7.53 µM
OVCAR-4 ovarian
  GI50: 2.1 µM
  TGI: 4.82 µM
SF-268 CNS
  GI50: 2.55 µM
  TGI: 7.7 µM
HOP-92 NSCLC
  GI50: 1.67 µM
  TGI: 3.3 µM
UACC-62 melanoma
  GI50: 1.7 µM
  TGI: 3.22 µM
HCT-116 colon
  GI50: 1.87 µM
  TGI: 3.59 µM
SNB-19 CNS
  GI50: 2.05 µM
  TGI: 4.83 µM
NCI-H23 lung
  GI50: 1.89 µM
  TGI: 3.86 µM
SF-539 CNS
  GI50: 1.74 µM
  TGI: 3.22 µM
MALME-3M melanoma
  GI50: 1.79 µM
  TGI: 3.51 µM
SF-295 CNS
  GI50: 12.5 µM
  TGI: 25.4 µM
NCI-H522 lung
  GI50: 2 µM
  TGI: 4.15 µM
U251 CNS
  GI50: 1.83 µM
  TGI: 3.63 µM
NCI-H226 lung
  GI50: 2.06 µM
  TGI: 4.59 µM
SNB-75 CNS
  GI50: 2.07 µM
  TGI: 12.4 µM
BT-549 breast
  GI50: 1.84 µM
  TGI: 3.36 µM
DU-145 prostate
  GI50: 2.98 µM
  TGI: 8.42 µM
SK-MEL-28 melanoma
  GI50: 1.81 µM
  TGI: 3.36 µM
M14 melanoma
  GI50: 1.85 µM
  TGI: 3.76 µM
HS 578T breast
  GI50: 2.54 µM
  TGI: 8.26 µM
HOP-62 NSCLC
  GI50: 3.24 µM
  TGI: 13.1 µM
786-0 renal
  GI50: 2.38 µM
  TGI: 6.33 µM
UO-31 renal
  GI50: 2.63 µM
  TGI: 12.8 µM
OVCAR-5 ovarian
  GI50: 1.7 µM
  TGI: 3.18 µM
MDA-MB-435
  GI50: 2 µM
  TGI: 4.3 µM
A498 renal
  GI50: 2.38 µM
  TGI: 9.57 µM
COLO 205 colon
  GI50: 1.91 µM
  TGI: 4 µM
EKVX NSCLC
  GI50: 1.84 µM
  TGI: 3.87 µM
NCI/ADR-RES ovarian
  GI50: 2.05 µM
  TGI: 4.99 µM
SK-MEL-5 melanoma
  GI50: 2.09 µM
  TGI: 4.34 µM
RXF 393 renal
  GI50: 1.77 µM
  TGI: 3.41 µM
OVCAR-8 ovarian
  GI50: 2.19 µM
  TGI: 4.92 µM
SK-MEL-2 melanoma
  GI50: 2.73 µM
  TGI: 7.32 µM
TK-10 renal
  GI50: 6.68 µM
  TGI: 37.1 µM
HT29 colon
  GI50: 2.19 µM
  TGI: 4.85 µM
ACHN renal
  GI50: 1.81 µM
  TGI: 3.21 µM
HCT-15 colon
  GI50: 1.7 µM
  TGI: 3.34 µM
RPMI-8226 leukemia
  GI50: 0.545 µM
  TGI: 4.7 µM
K-562 leukemia
  GI50: 1.99 µM
  TGI: > 100 µM
SW-620 colon
  GI50: 1.77 µM
  TGI: 3.5 µM
CAKI-1 renal
  GI50: 1.6 µM
  TGI: 3.04 µM
PC-3 prostate
  GI50: 2.42 µM
  TGI: 6.03 µM
HL-60(TB) leukemia
  GI50: 2.23 µM
  TGI: 5.2 µM
MDA-MB-231 breast
  GI50: 1.7 µM
  TGI: 3.15 µM
SN12C renal
  GI50: 1.84 µM
  TGI: 3.44 µM
MCF7 breast
  GI50: 2.8 µM
  TGI: 12.8 µM
